Measured values published in the NIST ThermoML archive (doi:10.1016/j.fluid.2017.12.026).
Several values for one entry are separate records, joined by “and”; a condition that tells them apart may be missing. Equal entries are not always repeated.

Conditions: Coaxial cylinder method

CCCCC [pentane]
Conditions	thermal conductivity
309.04 K, 260 kPa, Liquid	0.109 W/m/K
309.04 K, 261 kPa, Liquid	0.1092 W/m/K
309.04 K, 1000 kPa, Liquid	0.1095 W/m/K
309.04 K, 2000 kPa, Liquid	0.1101 W/m/K
309.04 K, 3012 kPa, Liquid	0.1108 W/m/K
309.04 K, 4151 kPa, Liquid	0.1118 W/m/K
309.04 K, 4297 kPa, Liquid	0.1117 W/m/K
309.04 K, 5604 kPa, Liquid	0.1123 W/m/K
309.04 K, 6001 kPa, Liquid	0.1125 W/m/K
309.04 K, 7000 kPa, Liquid	0.113 W/m/K
309.04 K, 8108 kPa, Liquid	0.1137 W/m/K
309.04 K, 9011 kPa, Liquid	0.1142 W/m/K
309.04 K, 10008 kPa, Liquid	0.1154 W/m/K
309.04 K, 11054 kPa, Liquid	0.1161 W/m/K
309.04 K, 12000 kPa, Liquid	0.1167 W/m/K
309.04 K, 12504 kPa, Liquid	0.1168 W/m/K
309.04 K, 13000 kPa, Liquid	0.1171 W/m/K
309.04 K, 14742 kPa, Liquid	0.1181 W/m/K
309.04 K, 19800 kPa, Liquid	0.1207 W/m/K
309.04 K, 19908 kPa, Liquid	0.1205 W/m/K
309.04 K, 20004 kPa, Liquid	0.1206 W/m/K
309.04 K, 24000 kPa, Liquid	0.1231 W/m/K
309.04 K, 25000 kPa, Liquid	0.1233 W/m/K
309.04 K, 28000 kPa, Liquid	0.1241 W/m/K
309.04 K, 29100 kPa, Liquid	0.1253 W/m/K
309.04 K, 29300 kPa, Liquid	0.1256 W/m/K
309.04 K, 34000 kPa, Liquid	0.1281 W/m/K
309.04 K, 35000 kPa, Liquid	0.1286 W/m/K
309.04 K, 38000 kPa, Liquid	0.1298 W/m/K
309.04 K, 39100 kPa, Liquid	0.1299 W/m/K
309.04 K, 39176 kPa, Liquid	0.13 W/m/K
309.04 K, 39350 kPa, Liquid	0.1304 W/m/K
309.04 K, 49940 kPa, Liquid	0.1352 W/m/K
309.04 K, 50230 kPa, Liquid	0.1353 W/m/K
309.04 K, 50800 kPa, Liquid	0.1352 W/m/K
315.55 K, 100 kPa, Gas	0.01635 W/m/K
331.2 K, 2097 kPa, Liquid	0.1035 W/m/K
331.2 K, 3000 kPa, Liquid	0.1041 W/m/K
331.2 K, 3500 kPa, Liquid	0.1045 W/m/K
331.2 K, 4000 kPa, Liquid	0.1046 W/m/K
331.2 K, 5000 kPa, Liquid	0.1053 W/m/K
331.2 K, 6000 kPa, Liquid	0.1061 W/m/K
331.2 K, 7000 kPa, Liquid	0.1068 W/m/K
331.2 K, 8000 kPa, Liquid	0.1069 W/m/K
331.2 K, 9000 kPa, Liquid	0.1072 W/m/K
331.2 K, 9500 kPa, Liquid	0.1077 W/m/K
331.2 K, 10000 kPa, Liquid	0.1078 W/m/K
331.2 K, 11000 kPa, Liquid	0.1085 W/m/K
331.2 K, 12000 kPa, Liquid	0.109 W/m/K
331.2 K, 13000 kPa, Liquid	0.1094 W/m/K
331.2 K, 15000 kPa, Liquid	0.1109 W/m/K
331.2 K, 16000 kPa, Liquid	0.1115 W/m/K
331.2 K, 17000 kPa, Liquid	0.1122 W/m/K
331.2 K, 18000 kPa, Liquid	0.1126 W/m/K
331.2 K, 19000 kPa, Liquid	0.1131 W/m/K
331.2 K, 20000 kPa, Liquid	0.1139 W/m/K
331.2 K, 21000 kPa, Liquid	0.1141 W/m/K
331.2 K, 22000 kPa, Liquid	0.1148 W/m/K
331.2 K, 24000 kPa, Liquid	0.1158 W/m/K
331.2 K, 25482 kPa, Liquid	0.1167 W/m/K
331.2 K, 26404 kPa, Liquid	0.1172 W/m/K
331.2 K, 27000 kPa, Liquid	0.1176 W/m/K
331.2 K, 30000 kPa, Liquid	0.1188 W/m/K
331.2 K, 31040 kPa, Liquid	0.1193 W/m/K
331.2 K, 31081 kPa, Liquid	0.1193 W/m/K
331.2 K, 32500 kPa, Liquid	0.1202 W/m/K
331.2 K, 33500 kPa, Liquid	0.1209 W/m/K
331.2 K, 34477 kPa, Liquid	0.1211 W/m/K
331.2 K, 35500 kPa, Liquid	0.1216 W/m/K
331.2 K, 36500 kPa, Liquid	0.1224 W/m/K
331.2 K, 37885 kPa, Liquid	0.1229 W/m/K
331.2 K, 38500 kPa, Liquid	0.1231 W/m/K
331.2 K, 39000 kPa, Liquid	0.1237 W/m/K
331.2 K, 39500 kPa, Liquid	0.1239 W/m/K
331.2 K, 40000 kPa, Liquid	0.1241 W/m/K
331.2 K, 41000 kPa, Liquid	0.1242 W/m/K
331.2 K, 42000 kPa, Liquid	0.1246 W/m/K
331.2 K, 43500 kPa, Liquid	0.1255 W/m/K
331.2 K, 44500 kPa, Liquid	0.1261 W/m/K
331.2 K, 45500 kPa, Liquid	0.1266 W/m/K
331.2 K, 47000 kPa, Liquid	0.1272 W/m/K
331.2 K, 48000 kPa, Liquid	0.1273 W/m/K
331.2 K, 49500 kPa, Liquid	0.1283 W/m/K
331.2 K, 50000 kPa, Liquid	0.1278 W/m/K
386 K, 5061 kPa, Liquid	0.09007 W/m/K
386 K, 10175 kPa, Liquid	0.09446 W/m/K
386 K, 18875 kPa, Liquid	0.0996 W/m/K
386 K, 20275 kPa, Liquid	0.1023 W/m/K
386 K, 30275 kPa, Liquid	0.1082 W/m/K
386 K, 34475 kPa, Liquid	0.1107 W/m/K
386 K, 40275 kPa, Liquid	0.1122 W/m/K
386 K, 49975 kPa, Liquid	0.1184 W/m/K
386 K, 53475 kPa, Liquid	0.1203 W/m/K
387.83 K, 75 kPa, Gas	0.02437 W/m/K
387.83 K, 100 kPa, Gas	0.02484 W/m/K
399.6 K, 2900 kPa, Liquid	0.08457 W/m/K
399.6 K, 3000 kPa, Liquid	0.08493 W/m/K
399.6 K, 4000 kPa, Liquid	0.08522 W/m/K
399.6 K, 4500 kPa, Liquid	0.08602 W/m/K
399.6 K, 5000 kPa, Liquid	0.0869 W/m/K
399.6 K, 6000 kPa, Liquid	0.088 W/m/K
399.6 K, 7000 kPa, Liquid	0.08901 W/m/K
399.6 K, 7500 kPa, Liquid	0.08952 W/m/K
399.6 K, 8000 kPa, Liquid	0.0899 W/m/K
399.6 K, 9500 kPa, Liquid	0.09127 W/m/K
399.6 K, 10000 kPa, Liquid	0.09171 W/m/K
399.6 K, 11000 kPa, Liquid	0.09237 W/m/K
399.6 K, 12000 kPa, Liquid	0.09323 W/m/K
399.6 K, 13000 kPa, Liquid	0.09372 W/m/K
399.6 K, 14000 kPa, Liquid	0.09464 W/m/K
399.6 K, 15000 kPa, Liquid	0.09518 W/m/K
399.6 K, 16000 kPa, Liquid	0.09601 W/m/K
399.6 K, 17000 kPa, Liquid	0.09671 W/m/K
399.6 K, 18000 kPa, Liquid	0.09742 W/m/K
399.6 K, 19000 kPa, Liquid	0.09836 W/m/K
399.6 K, 20000 kPa, Liquid	0.0989 W/m/K
399.6 K, 21000 kPa, Liquid	0.09955 W/m/K
399.6 K, 22000 kPa, Liquid	0.1001 W/m/K
399.6 K, 23500 kPa, Liquid	0.1011 W/m/K
399.6 K, 25000 kPa, Liquid	0.1022 W/m/K
399.6 K, 26000 kPa, Liquid	0.1026 W/m/K
399.6 K, 27000 kPa, Liquid	0.1031 W/m/K
399.6 K, 28000 kPa, Liquid	0.1037 W/m/K
399.6 K, 29000 kPa, Liquid	0.1047 W/m/K
399.6 K, 30000 kPa, Liquid	0.1051 W/m/K
399.6 K, 31000 kPa, Liquid	0.1056 W/m/K
399.6 K, 33000 kPa, Liquid	0.1066 W/m/K
399.6 K, 34000 kPa, Liquid	0.1071 W/m/K
399.6 K, 35000 kPa, Liquid	0.1076 W/m/K
399.6 K, 35301 kPa, Liquid	0.1079 W/m/K
421.85 K, 100 kPa, Gas	0.02874 W/m/K and 0.02895 W/m/K
421.85 K, 1640 kPa, Liquid	0.07566 W/m/K
421.85 K, 1650 kPa, Liquid	0.07566 W/m/K
421.85 K, 1660 kPa, Liquid	0.07566 W/m/K
421.85 K, 1680 kPa, Liquid	0.07566 W/m/K
421.85 K, 1700 kPa, Liquid	0.07566 W/m/K
421.85 K, 1710 kPa, Liquid	0.07566 W/m/K
421.85 K, 1720 kPa, Liquid	0.07566 W/m/K
421.85 K, 1730 kPa, Liquid	0.07596 W/m/K
421.85 K, 1750 kPa, Liquid	0.07566 W/m/K
421.85 K, 1764 kPa, Liquid	0.07568 W/m/K
421.85 K, 1772 kPa, Liquid	0.07584 W/m/K
421.85 K, 1910 kPa, Liquid	0.07624 W/m/K
421.85 K, 1946 kPa, Liquid	0.0762 W/m/K
421.85 K, 1954 kPa, Liquid	0.07621 W/m/K
422.2 K, 2518 kPa, Liquid	0.07714 W/m/K
422.2 K, 5041 kPa, Liquid	0.08091 W/m/K
422.2 K, 10475 kPa, Liquid	0.08676 W/m/K
422.2 K, 18675 kPa, Liquid	0.09347 W/m/K
422.2 K, 18775 kPa, Liquid	0.09348 W/m/K
422.2 K, 20475 kPa, Liquid	0.09413 W/m/K
422.2 K, 30575 kPa, Liquid	0.1002 W/m/K
422.2 K, 30675 kPa, Liquid	0.1007 W/m/K
422.2 K, 40275 kPa, Liquid	0.1061 W/m/K
422.2 K, 48075 kPa, Liquid	0.1104 W/m/K
422.2 K, 52975 kPa, Liquid	0.1123 W/m/K
425.73 K, 100 kPa, Gas	0.02926 W/m/K
425.74 K, 1560 kPa, Gas	0.0319 W/m/K
425.8 K, 100 kPa, Gas	0.0294 W/m/K
425.82 K, 100 kPa, Gas	0.02926 W/m/K
426.24 K, 100 kPa, Gas	0.02935 W/m/K
426.25 K, 100 kPa, Gas	0.02935 W/m/K
426.25 K, 1210 kPa, Gas	0.0316 W/m/K
426.25 K, 1280 kPa, Gas	0.03151 W/m/K
